Columns and labels:
HBV [1] = assay: Anti-HBV activity, HepG2.2.15 cell line, HBV DNA from secreted virions by realtime PCR; format: cell-based, Hepatitis B virus; conditions: HepG2.2.15 cells, 6 days of treatment
HBV [2] = assay: Anti-HBV activity, HepG2.117 cell line (Tet-off), intracellular HBV DNA by realtime PCR; format: cell-based, Hepatitis B virus; conditions: HepG2.117 cells, 3 days of treatment
[3] = Cytotoxicity in HepG2 cells, Resazurin assay; format: cell-based; conditions: human, incubated for 4 days, Resazurin viability
[4] = Hepatitis B virus, HepG2.2.15, 144 h
[5] = Hepatitis B virus, HepG2.117, 72 h

Row | Structure (SMILES) | EC50 (HBV [1]) [nM] | EC50 (HBV [2]) [nM] | CC50 at 4 days [3] [nM] | EC50 (HBV [1]; [4]) [nM] | EC50 (HBV [2]; [5]) [nM]
1 | Cc1cc(NC(=O)c2cc(S(=O)(=O)NC3(C)CCOC3)sc2C)ccc1F (racemic) [Compound 16, N-(4-fluoro-3-methyl-phenyl)-2-methyl-5-[(3-methyltetrahydrofuran-3-yl)sulfamoyl]thiophene-3-carboxamide] | 54 | 48 | > 25000 |  | 
2 | Cc1sc(S(=O)(=O)NC2(C(F)(F)F)CCOC2)cc1C(=O)Nc1cccc(C(F)(F)F)c1 (racemic) [Compound 41, 2-methyl-N-[3-(trifluoromethyl)phenyl]-5-[[3-(trifluoromethyl)tetrahydrofuran-3-yl]sulfamoyl]thiophene-3-carboxamide] |  |  | > 25000 | 550 | > 1000
3 | Cc1sc(S(=O)(=O)NC2(C(F)(F)F)CCOC2)cc1C(=O)Nc1ccc(F)c(C#N)c1 (racemic) [Compound 54, N-(3-cyano-4-fluoro-phenyl)-2-methyl-5-[[3-(trifluoromethyl)tetrahydrofuran-3-yl]sulfamoyl]thiophene-3-carboxamide] |  |  | > 25000 | 180 | 100
4 | Cc1cc(NC(=O)c2csc(S(=O)(=O)N[C@H]3CCOC3)c2)ccc1F [Compound 1, N-(4-fluoro-3-methyl-phenyl)-5-[[(3S)-tetrahydrofuran-3-yl]sulfamoyl]thiophene-3-carboxamide] |  |  | > 25000 | 170 | 320
5 | Cc1cc(NC(=O)c2cc(S(=O)(=O)N[C@H]3CCOC3)sc2Br)ccc1F [Compound 2, 2-bromo-N-(4-fluoro-3-methyl-phenyl)-5-[[(3S)-tetrahydrofuran-3-yl]-sulfamoyl]thiophene-3-carboxamide] |  |  | > 25000 | 810 | 1900
6 | Cc1cc(NC(=O)c2cc(S(=O)(=O)N[C@H](C)CO)sc2Cl)ccc1F [Compound 3, 2-chloro-N-(4-fluoro-3-methyl-phenyl)-5-[[(1R)-2-hydroxy-1-methyl-ethyl]sulfamoyl]thiophene-3-carboxamide] |  |  | > 25000 | 210 | 340
7 | Cc1cc(NC(=O)c2cc(S(=O)(=O)N[C@H]3CCOC3)sc2Cl)ccc1F [Compound 4, 2-chloro-N-(4-fluoro-3-methyl-phenyl)-5-[[(3S)-tetrahydrofuran-3-yl]-sulfamoyl]thiophene-3-carboxamide] |  |  | > 25000 | 570 | 560
8 | Cc1cc(NC(=O)c2cc(S(=O)(=O)N[C@H]3CCOC3)sc2C(F)(F)F)ccc1F [Compound 5, N-(4-fluoro-3-methyl-phenyl)-5-[[(3S)-tetrahydrofuran-3-yl]sulfamoyl]-2-(trifluoromethyl)thiophene-3-carboxamide] |  |  | > 25000 | 1670 | 1180
9 | Cc1cc(NC(=O)c2cc(S(=O)(=O)N[C@H]3CCOC3)sc2C2CC2)ccc1F [Compound 6, 2-cyclopropyl-N-(4-fluoro-3-methyl-phenyl)-5-[[(3S)-tetrahydrofuran-3-yl]sulfamoyl]thiophene-3-carboxamide] |  |  | > 25000 | 580 | 680
10 | Cc1cc(NC(=O)c2cc(S(=O)(=O)N[C@H]3CCOC3)sc2C)ccc1F [Compound 7, N-(4-fluoro-3-methyl-phenyl)-2-methyl-5-[[(3S)-tetrahydrofuran-3-yl]-sulfamoyl]thiophene-3-carboxamide] |  |  | > 25000 | 170 | 160
11 | Cc1cc(NC(=O)c2cc(S(=O)(=O)N[C@H]3CCOC3)cs2)ccc1F [Compound 8, N-(4-fluoro-3-methyl-phenyl)-4-[[(3S)-tetrahydrofuran-3-yl]sulfamoyl]thiophene-2-carboxamide] |  |  | > 25000 | 100 | 160
12 | Cc1cc(NC(=O)c2cc(S(=O)(=O)N[C@H]3CCOC3)c(C)s2)ccc1F [Compound 9, N-(4-fluoro-3-methyl-phenyl)-5-methyl-4-[[(3S)-tetrahydrofuran-3-yl]-sulfamoyl]thiophene-2-carboxamide] |  |  | > 25000 | 790 | 1100
13 | Cc1cc(NC(=O)c2cc(S(=O)(=O)NC3(C)COC3)c(C)s2)ccc1F [Compound 10, N-(4-fluoro-3-methyl-phenyl)-5-methyl-4-[(3-methyloxetan-3-yl)-sulfamoyl]thiophene-2-carboxamide] |  |  | > 25000 | 430 | 560
14 | Cc1cc(NC(=O)c2scc(S(=O)(=O)N[C@H]3CCOC3)c2C)ccc1F [Compound 11, N-(4-fluoro-3-methyl-phenyl)-3-methyl-4-[[(3S)-tetrahydrofuran-3-yl]-sulfamoyl]thiophene-2-carboxamide] |  |  | > 25000 | 190 | 310
15 | Cc1cc(NC(=O)c2scc(S(=O)(=O)NC3(C)COC3)c2C)ccc1F [Compound 12, N-(4-fluoro-3-methyl-phenyl)-3-methyl-4-[(3-methyloxetan-3-yl)-sulfamoyl]thiophene-2-carboxamide] |  |  | > 25000 | 160 | 190
16 | Cc1cc(NC(=O)c2ccc(S(=O)(=O)N[C@H]3CCOC3)s2)ccc1F [Compound 13, N-(4-fluoro-3-methyl-phenyl)-5-[[(3S)-tetrahydrofuran-3-yl]-sulfamoyl]thiophene-2-carboxamide] |  |  | > 25000 | 1700 | 940
17 | CCc1sc(S(=O)(=O)N[C@H]2CCOC2)cc1C(=O)Nc1ccc(F)c(C)c1 [Compound 14, 2-ethyl-N-(4-fluoro-3-methyl-phenyl)-5-[[(3S)-tetrahydrofuran-3-yl]-sulfamoyl]thiophene-3-carboxamide] |  |  | > 25000 | 630 | 130
18 | Cc1cc(NC(=O)c2cc(S(=O)(=O)NC3(C)COC3)sc2C)ccc1F [Compound 15, N-(4-fluoro-3-methyl-phenyl)-2-methyl-5-[(3-methyloxetan-3-yl)-sulfamoyl]thiophene-3-carboxamide] |  |  | > 25000 | 27 | 160
19 | Cc1sc(S(=O)(=O)NC(C)(C)C)cc1C(=O)Nc1ccc(F)c(F)c1 [Compound 17, 5-(tert-butylsulfamoyl)-N-(3,4-difluorophenyl)-2-methyl-thiophene-3-carboxamide] |  |  | 11700 | 120 | 130
20 | CC[C@@H](C)NS(=O)(=O)c1cc(C(=O)Nc2ccc(F)c(F)c2)c(C)s1 [Compound 18, N-(3,4-difluorophenyl)-2-methyl-5-[[(1R)-1-methylpropyl]sulfamoyl]thiophene-3-carboxamide] |  |  | 14600 | 65 | 82
21 | Cc1sc(S(=O)(=O)NC2(C)COC2)cc1C(=O)Nc1cc(F)c(F)c(Cl)c1 [Compound 19, N-(3-chloro-4,5-difluoro-phenyl)-2-methyl-5-[(3-methyloxetan-3-yl)-sulfamoyl]thiophene-3-carboxamide] |  |  | > 25000 | 63 | 100
22 | Cc1sc(S(=O)(=O)NC(C)(C)C)cc1C(=O)Nc1cc(F)c(F)c(Cl)c1 [Compound 20, 5-(tert-Butylsulfamoyl)-N-(3-chloro-4,5-difluorophenyl)-2-methylthiophene-3-carboxamide] |  |  | 15900 | 170 | 110
23 | Cc1sc(S(=O)(=O)NC(C)(C)C)cc1C(=O)Nc1cccc(C(F)(F)F)c1 [Compound 21, 5-(tert-butylsulfamoyl)-2-methyl-N-[3-(trifluoromethyl)phenyl]thiophene-3-carboxamide] |  |  | 10500 | 320 | > 1000
24 | Cc1sc(S(=O)(=O)NC2(C)COC2)cc1C(=O)Nc1cccc(C(F)(F)F)c1 [Compound 22, 2-methyl-5-[(3-methyloxetan-3-yl)sulfamoyl]-N-[3-(trifluoromethyl)-phenyl]thiophene-3-carboxamide] |  |  | > 25000 | 250 | 230
25 | Cc1cc(NC(=O)c2cc(S(=O)(=O)NC(C)(C)C)sc2C)cc(F)c1F [Compound 23, 5-(tert-Butylsulfamoyl)-N-(3,4-difluoro-5-methylphenyl)-2-methylthiophene-3-carboxamide] |  |  | 18100 | 110 | 32
26 | Cc1sc(S(=O)(=O)NC(C)(C)C)cc1C(=O)Nc1ccc(F)c(C#N)c1 [Compound 24, 5-(tert-Butylsulfamoyl)-N-(3-cyano-4-fluorophenyl)-2-methylthiophene-3-carboxamide] |  |  | > 25000 | 120 | 150
27 | Cc1cc(NC(=O)c2cc(S(=O)(=O)NC(C)(C)C)sc2C)ccc1F [Compound 25, 5-(tert-Butylsulfamoyl)-N-(4-fluoro-3-methylphenyl)-2-methylthiophene-3-carboxamide] |  |  | > 25000 | 53 | 58
28 | Cc1sc(S(=O)(=O)NC(C)(C)C)cc1C(=O)Nc1ccc(F)c(Cl)c1 [Compound 26, 5-(tert-Butylsulfamoyl)-N-(3-chloro-4-fluorophenyl)-2-methylthiophene-3-carboxamide] |  |  | 11500 | 170 | 51
29 | Cc1sc(S(=O)(=O)NC(C)(C)C)cc1C(=O)Nc1ccc(F)c(Br)c1 [Compound 27, N-(3-Bromo-4-fluorophenyl)-5-(tert-butylsulfamoyl)-2-methylthiophene-3-carboxamide] |  |  | 12200 | 130 | 90
30 | Cc1sc(S(=O)(=O)NC(C)(C)C(F)(F)F)cc1C(=O)Nc1cc(F)c(F)c(Cl)c1 [Compound 40, N-(3-chloro-4,5-difluoro-phenyl)-2-methyl-5-[(2,2,2-trifluoro-1,1-dimethyl-ethyl)sulfamoyl]thiophene-3-carboxamide] |  |  | > 25000 |  | 500

Reference: patent US10160743B2, “Sulphamoylthiophenamide derivatives and the use thereof as medicaments for the treatment of hepatitis B” (Janssen Sciences Ireland UC, priority 2013, dated 2018)
